These are literature values, as cited in patent US6331660A, “Maize DIMBOA biosynthesis genes” (Dekalb Genetics Corporation, priority 1998, dated 2001).

This data set has as its target T1, native E. coli α2β2 complex of tryptophan synthase α (TSA) and tryptophan synthase β (TSB) (Escherichia coli, UniProt P0A877).
T1 construct: by the native E. coli α2β2 complex
Particulars: conversion of indole-3-glycerol phosphate to indole, Weischet et al., 1976.

T1 sequence (P0A879 2-397): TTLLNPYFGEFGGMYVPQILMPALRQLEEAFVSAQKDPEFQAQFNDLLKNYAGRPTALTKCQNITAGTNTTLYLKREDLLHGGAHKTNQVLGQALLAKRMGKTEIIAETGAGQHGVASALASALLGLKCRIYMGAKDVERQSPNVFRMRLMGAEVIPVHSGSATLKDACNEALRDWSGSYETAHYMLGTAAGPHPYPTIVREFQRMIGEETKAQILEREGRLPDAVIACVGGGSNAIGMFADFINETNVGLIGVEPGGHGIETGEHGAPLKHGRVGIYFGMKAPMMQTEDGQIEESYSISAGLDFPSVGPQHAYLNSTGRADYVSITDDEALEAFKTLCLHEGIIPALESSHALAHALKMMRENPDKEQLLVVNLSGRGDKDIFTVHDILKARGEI
T1 sequence (P0A877 whole entry): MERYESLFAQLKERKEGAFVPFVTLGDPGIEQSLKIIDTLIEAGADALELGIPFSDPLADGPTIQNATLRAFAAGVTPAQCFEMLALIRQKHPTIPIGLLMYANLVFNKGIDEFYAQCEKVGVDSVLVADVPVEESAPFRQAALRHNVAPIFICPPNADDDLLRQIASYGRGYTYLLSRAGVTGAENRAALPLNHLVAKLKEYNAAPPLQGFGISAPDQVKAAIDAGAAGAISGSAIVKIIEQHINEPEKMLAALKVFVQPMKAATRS

For `O=P(O)(O)OCC(O)C(O)c1c[nH]c2ccccc12` (centres unmarked) [indole-3-glycerol phosphate], the kcat (commonly the maximal rate divided by the concentration of active sites) was 0.2 s⁻¹. For the same molecule, for the setting “read-out: Km^indole-3-glycerol phosphate”, the Km (as a rule, the concentration of substrate that gives half-maximal velocity) is 27 µM.
